Results reported in ChEMBL document CHEMBL1201862, “PubChem BioAssay data set” (2004).
Activity calls are given as the source filed them.

Columns and labels:
P388/ADR = experiment: cells; type: functional; conditions: Mus musculus
SN12K1 = experiment: cells; type: functional; conditions: Homo sapiens
P388 = experiment: cells; type: functional; conditions: Mus musculus
[1] = target: T1, Sentrin-specific protease 8 (Homo sapiens, UniProt Q96LD8); experiment: inhibition of human SENP8 cleavage activity – biochemical, luminescence, SAR follow-up (AID 504501); type: functional
T1 sequence (Q96LD8 whole entry): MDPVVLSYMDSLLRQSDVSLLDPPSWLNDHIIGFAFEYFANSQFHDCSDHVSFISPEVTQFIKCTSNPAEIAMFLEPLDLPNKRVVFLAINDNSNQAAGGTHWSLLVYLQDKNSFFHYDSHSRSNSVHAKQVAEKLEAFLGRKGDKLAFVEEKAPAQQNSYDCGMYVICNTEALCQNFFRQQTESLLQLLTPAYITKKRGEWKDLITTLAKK

Caspase-3 [2] = target: T2, Caspase-3 (Homo sapiens, UniProt P42574); experiment: SAR Analysis of small molecule inhibitors of Sentrin-specific proteases (SENPs) using a Caspase-3 Selectivity assay. [Related pubchem assays (depositor defined):AID2540, AID2599, AID434973, AID489001]; type: functional
T2 sequence (P42574 whole entry): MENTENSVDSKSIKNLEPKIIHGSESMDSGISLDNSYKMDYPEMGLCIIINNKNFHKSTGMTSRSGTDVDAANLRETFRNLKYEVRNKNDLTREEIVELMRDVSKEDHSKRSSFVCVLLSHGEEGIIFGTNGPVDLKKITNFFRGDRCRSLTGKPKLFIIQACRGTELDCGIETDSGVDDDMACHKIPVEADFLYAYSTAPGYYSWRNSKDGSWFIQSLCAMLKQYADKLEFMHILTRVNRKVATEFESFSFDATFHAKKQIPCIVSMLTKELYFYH

[3] = target: T3, Sentrin-specific protease 6 (Homo sapiens, UniProt Q9GZR1); experiment: SAR Analysis of small molecule inhibitors of Sentrin-specific protease 6 (SENP6) using a Luminescent assay. [Related pubchem assays (depositor defined):AID2582, AID2599]; type: functional
T3 sequence (Q9GZR1 whole entry): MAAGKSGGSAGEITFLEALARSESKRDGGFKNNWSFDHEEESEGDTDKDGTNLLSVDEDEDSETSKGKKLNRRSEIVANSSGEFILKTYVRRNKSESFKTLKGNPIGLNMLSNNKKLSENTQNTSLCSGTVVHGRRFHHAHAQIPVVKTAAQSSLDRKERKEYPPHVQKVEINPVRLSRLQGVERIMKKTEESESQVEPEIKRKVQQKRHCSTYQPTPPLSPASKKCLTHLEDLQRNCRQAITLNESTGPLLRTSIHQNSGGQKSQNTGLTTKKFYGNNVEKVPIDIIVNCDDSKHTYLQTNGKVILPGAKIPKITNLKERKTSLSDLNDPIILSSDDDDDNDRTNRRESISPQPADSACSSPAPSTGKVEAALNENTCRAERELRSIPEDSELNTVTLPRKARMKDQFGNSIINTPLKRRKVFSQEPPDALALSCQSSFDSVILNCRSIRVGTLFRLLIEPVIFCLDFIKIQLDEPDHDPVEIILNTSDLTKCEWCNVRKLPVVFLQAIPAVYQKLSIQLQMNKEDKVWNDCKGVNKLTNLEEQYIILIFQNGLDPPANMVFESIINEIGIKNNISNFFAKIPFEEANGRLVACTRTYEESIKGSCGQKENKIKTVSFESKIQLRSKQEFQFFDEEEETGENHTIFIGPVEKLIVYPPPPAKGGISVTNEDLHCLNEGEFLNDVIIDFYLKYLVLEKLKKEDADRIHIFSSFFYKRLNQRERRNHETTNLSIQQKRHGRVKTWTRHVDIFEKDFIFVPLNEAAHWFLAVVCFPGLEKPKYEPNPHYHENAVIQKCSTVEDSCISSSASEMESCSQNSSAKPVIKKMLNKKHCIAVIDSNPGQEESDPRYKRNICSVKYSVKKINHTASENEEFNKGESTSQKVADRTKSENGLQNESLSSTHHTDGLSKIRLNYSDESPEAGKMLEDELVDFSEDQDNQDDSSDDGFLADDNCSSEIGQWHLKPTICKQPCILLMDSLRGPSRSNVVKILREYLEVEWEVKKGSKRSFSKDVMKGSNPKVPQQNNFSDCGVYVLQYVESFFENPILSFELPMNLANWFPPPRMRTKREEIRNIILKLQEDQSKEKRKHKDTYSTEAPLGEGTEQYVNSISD

[4] = target: T4, Sentrin-specific protease 7 (Homo sapiens, UniProt Q9BQF6); experiment: inhibition of human SENP7 cleavage activity – biochemical, luminescence, SAR follow-up (AID 504497); type: functional
T4 sequence (Q9BQF6 whole entry): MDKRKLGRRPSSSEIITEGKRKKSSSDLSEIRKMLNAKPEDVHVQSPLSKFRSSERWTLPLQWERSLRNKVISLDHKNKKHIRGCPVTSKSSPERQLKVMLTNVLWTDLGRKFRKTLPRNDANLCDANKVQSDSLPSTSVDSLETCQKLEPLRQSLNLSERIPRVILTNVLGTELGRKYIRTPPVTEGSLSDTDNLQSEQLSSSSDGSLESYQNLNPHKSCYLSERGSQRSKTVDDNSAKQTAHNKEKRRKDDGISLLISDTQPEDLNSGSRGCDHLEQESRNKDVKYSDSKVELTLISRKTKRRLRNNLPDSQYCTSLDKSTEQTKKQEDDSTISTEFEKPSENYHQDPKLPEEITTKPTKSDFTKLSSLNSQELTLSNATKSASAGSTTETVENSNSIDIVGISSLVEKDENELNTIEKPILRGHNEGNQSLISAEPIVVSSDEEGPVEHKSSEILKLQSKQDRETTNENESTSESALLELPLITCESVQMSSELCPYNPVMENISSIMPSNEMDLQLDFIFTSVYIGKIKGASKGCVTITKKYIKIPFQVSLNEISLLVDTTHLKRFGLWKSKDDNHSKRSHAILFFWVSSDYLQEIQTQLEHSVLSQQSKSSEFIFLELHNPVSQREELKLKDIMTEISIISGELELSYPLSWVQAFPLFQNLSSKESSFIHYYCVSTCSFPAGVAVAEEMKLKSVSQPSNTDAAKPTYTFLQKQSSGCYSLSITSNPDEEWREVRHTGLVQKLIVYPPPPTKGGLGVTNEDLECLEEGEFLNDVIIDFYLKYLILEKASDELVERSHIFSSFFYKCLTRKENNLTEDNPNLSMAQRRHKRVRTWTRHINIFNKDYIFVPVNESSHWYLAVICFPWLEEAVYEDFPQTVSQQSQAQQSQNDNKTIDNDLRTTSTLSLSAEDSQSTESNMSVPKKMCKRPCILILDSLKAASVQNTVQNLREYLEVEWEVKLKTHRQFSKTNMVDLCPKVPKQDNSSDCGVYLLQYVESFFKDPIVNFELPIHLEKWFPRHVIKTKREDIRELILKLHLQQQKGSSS

[5] = Trypanosoma cruzi growth suppression in host cells – NIH3T3 host cells, beta-gal luminescence, confirmation (AID 2044); type: functional, cell-based;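 further: intracellular parasites grown in NIH/3T3 mouse fibroblasts as host cells; luminescent beta-galactosidase reporter signal from transgenic T. cruzi replicating inside host cells; inhibitors lower the luminescence signal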
[6] = NIH3T3 cell viability loss – ATP luminescence, mouse fibroblasts, counter-screen, dose response (AID 2010); type: functional, cell-based;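 further: cells exposed to compound for about 90 hours before reading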
[7] = target: T5, Ubiquitin-conjugating enzyme E2 N (Homo sapiens, UniProt P61088); type: functional;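 further: Dose-response confirmation in a TR-FRET assay detecting UBC13-driven polyubiquitin chain formation, inhibition measured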
T5 sequence (P61088 whole entry): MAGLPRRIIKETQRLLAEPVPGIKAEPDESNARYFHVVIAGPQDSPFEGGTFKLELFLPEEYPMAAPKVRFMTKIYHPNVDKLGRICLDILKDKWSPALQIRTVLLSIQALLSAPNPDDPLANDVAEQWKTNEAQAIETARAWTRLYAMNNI

Melanocortin receptor 4 = Melanocortin receptor 4 (Homo sapiens, UniProt P32245); type: functional, cell-based;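 further: Cell-based assay with luminescence read-out, confirmatory dose-response testing for agonist activity of biased ligands at MC4R; human U2OS cells with tagged receptor and beta-arrestin; potency of agonists that increase receptor coupling to beta-arrestin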
[8] = target: T6, DNA repair protein RAD52 homolog (Homo sapiens, UniProt P43351); type: functional, biochemical
T6 sequence (P43351 whole entry): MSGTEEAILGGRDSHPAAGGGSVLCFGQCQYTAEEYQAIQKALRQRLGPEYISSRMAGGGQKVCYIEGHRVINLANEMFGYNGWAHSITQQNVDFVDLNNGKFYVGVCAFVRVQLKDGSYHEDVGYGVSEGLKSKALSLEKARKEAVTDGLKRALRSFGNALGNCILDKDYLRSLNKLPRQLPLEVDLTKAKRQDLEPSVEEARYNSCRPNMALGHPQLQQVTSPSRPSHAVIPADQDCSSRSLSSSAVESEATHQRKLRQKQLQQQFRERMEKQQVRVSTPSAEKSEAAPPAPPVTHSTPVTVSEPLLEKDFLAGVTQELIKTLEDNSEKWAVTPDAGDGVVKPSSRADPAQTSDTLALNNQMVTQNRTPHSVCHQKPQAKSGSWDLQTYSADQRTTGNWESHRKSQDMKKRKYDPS

H9c2 = experiment: cells; type: functional, cell-based; conditions: Rattus norvegicus, H9c2, Myocardium;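 further: confirmatory concentration-response retest of ultra-high-throughput screening hits for modulation of myocardial damage; cell death induced by hydrogen peroxide oxidative stress; compound pretreatment for 60 min then peroxide exposure for 2 h; potency is for protecting the cells against peroxide damage rather than for killing them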
[9] = viability of uninfected HEp-2 cells – cell-based, HTS, cytotoxicity control for RSV inhibitor project, dose response (AID 2410); type: functional; conditions: human respiratory syncytial virus
Caspase-3 [10] = target: T2, Caspase-3; type: functional
[11] = target: T4, Sentrin-specific protease 7; type: functional
[12] = target: T3, Sentrin-specific protease 6; type: functional
[13] = target: T1, Sentrin-specific protease 8; type: functional
[14] = target: T7, Low molecular weight phosphotyrosine protein phosphatase (Homo sapiens, UniProt P24666); type: functional; conditions: read-out: IC50_Mean;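 further: Dose-response confirmation assay measuring inhibition of LMPTP enzyme activity by fluorescence intensity read-out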
T7 sequence (P24666 whole entry): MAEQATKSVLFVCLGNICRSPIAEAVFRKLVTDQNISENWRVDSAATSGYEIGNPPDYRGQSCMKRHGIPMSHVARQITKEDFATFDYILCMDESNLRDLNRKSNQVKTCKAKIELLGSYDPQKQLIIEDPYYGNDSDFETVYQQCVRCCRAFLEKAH

[15] = blockers of HIV-1 envelope-mediated cell-cell fusion – cherry-pick, dose response (AID 652057); type: functional, cell-based
[16] = viability loss in CEM21 cells – cell-based, CellTiter-Glo luminescence, cherry-picked, cytotoxicity control for viral fusion inhibitor project, dose response (AID 652042); type: functional;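 further: potency for signal decrease meaning cytotoxicity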
[17] = blockers of HIV-1 ZM109 envelope-driven cell-cell fusion – HeLa effector, CEM target cells, luciferase, cherry-pick, dose response (AID 652058); type: functional, cell-based;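 further: luciferase signal from HIV-1 Env mediated cell-cell fusion of effector and target cells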
[18] = off-target signal loss in HeLa-CEM21 co-culture – HeLa F-luc CTL cells, cherry-picked, counter-screen for HIV-1 Env fusion inhibitor project, dose response (AID 652040); type: functional, cell-based;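 further: potency for signal decrease marking cytotoxic or nonspecific inhibition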
[19] = HIV-1 AD8 envelope cell-cell fusion blockers – cherry-pick, dose response (AID 652062); type: functional, cell-based;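 further: luciferase signal from cell-cell fusion driven by HIV-1 clade B AD8 Env; potency is for inhibitors of fusion seen as a drop in luminescence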

Sequence of Melanocortin receptor 4 (P32245 whole entry): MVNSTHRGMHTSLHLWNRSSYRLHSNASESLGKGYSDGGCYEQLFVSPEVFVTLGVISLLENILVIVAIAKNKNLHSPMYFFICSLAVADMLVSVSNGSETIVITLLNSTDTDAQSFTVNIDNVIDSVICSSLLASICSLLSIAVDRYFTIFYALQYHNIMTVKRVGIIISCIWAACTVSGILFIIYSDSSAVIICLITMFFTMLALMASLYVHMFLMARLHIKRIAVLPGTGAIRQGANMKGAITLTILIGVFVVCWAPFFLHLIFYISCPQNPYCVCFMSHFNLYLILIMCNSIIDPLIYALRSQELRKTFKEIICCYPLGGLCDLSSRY

IC50 (Caspase-3 [2]) | IC50 [3] | IC50 [4] | Structure (SMILES) | GI50 (P388/ADR) | GI50 (SN12K1) | GI50 (P388) | IC50 [1] | further results
– | – | – | O=C(O)CC(NC(=O)CP(=O)(O)O)C(=O)O (centres undefined) | 77.1 µM (inactive) | 5.32 µM (inactive) | 127 µM (inactive) | – | –
> 99 µM (inactive) | > 99 µM (inactive) | > 99 µM (inactive) | Fc1cc(C(F)(F)F)ccc1-c1nc(/C=C/c2ccccc2)no1 | – | – | – | > 99 µM (inactive) | –
– | – | – | N=C(N)Nc1nc(-c2ccccc2)c2cc(Cl)ccc2n1 | – | – | – | – | EC50 [5]: 0.382 µM (active); EC50 [6]: > 60 µM (not active); IC50 [7]: > 20 µM (inactive); EC50 (Melanocortin receptor 4): > 89.2 µM (inactive); AC50 [8]: 6.61 µM (active)
> 99 µM (inactive) | > 99 µM (inactive) | > 99 µM (inactive) | O=C(/C=C/c1ccc(OC2CSC2)cc1)c1ccc(Cl)cc1 | – | – | – | > 99 µM (inactive) | –
– | – | – | CSCSCC(CO)NC(=O)/C(C)=C\c1c(C)[nH]c(=O)[nH]c1=O (centres undefined) | > 250 µM (inactive) | > 250 µM (inactive) | > 250 µM (inactive) | – | –
– | – | – | CC(=O)Oc1ccc(C2COc3cc(OC(C)=O)c(OC(C)=O)cc3C2)cc1 (centres undefined) | 5.42 µM (inactive) | 13 µM (inactive) | 6 µM (inactive) | – | –
– | – | – | COc1cccc(-c2cnc3c(NC=O)cc(-c4cc(OC)c(OC)c(OC)c4)cn23)c1 | – | – | – | – | IC50 (H9c2): > 79 µM (inactive); EC50 (Melanocortin receptor 4): > 89.2 µM (inactive)
7.01 µM (active) | 5.12 µM (active) | 2.09 µM (active) | CCc1ccc2oc(-c3ccc(NC(C)=O)cc3)nc2c1 | – | – | – | 5.46 µM (active) | CC50 [9]: 22.2 µM (active); IC50 (Caspase-3 [10]): 12.4 µM (active); IC50 [11]: 2.89 µM (active); IC50 [12]: 8.05 µM (active); IC50 [13]: 13.2 µM (active)
> 99 µM (inactive) | > 99 µM (inactive) | > 99 µM (inactive) | O=C(Nc1nc2ccc(NC(=O)c3n[nH]c4c3CCc3ccccc3-4)cc2s1)c1ccccc1 | – | – | – | > 99 µM (inactive) | –
– | – | – | O=c1[nH]c2ccccc2n1C1CCN(Cc2ccc(-c3nc4cc5[nH]cnc5cc4nc3-c3ccccc3)cc2)CC1 | – | – | – | – | IC50 [14]: 7.43 µM (active)
– | – | – | CCOc1cc(CNCCc2c[nH]c3ccccc23)cc(Cl)c1OCC | – | – | – | – | CC50 [9]: 14.9 µM (active); EC50 (Melanocortin receptor 4): > 89.2 µM (inactive); AC50 [15]: 4.29 µM (active); AC50 [16]: 26.6 µM (active); AC50 [17]: 2.31 µM (active); AC50 [18]: 6.11 µM (active); AC50 [19]: 27.2 µM (active)
– | – | – | O=c1c2ccccc2nc2sc(Nc3cccc(Cl)c3)nn12 | – | – | – | – | IC50 [14]: 14.5 µM (active)
– | – | – | C/C(=C\c1ccccc1)C(=O)CCN1CCOCC1 | 5.73 µM (inactive) | 17.9 µM (inactive) | 4.78 µM (inactive) | – | –
